For 15 compounds, IC50 results are on record in patent US8975267B2, “Tricyclic pyrrolo derivatives, process for their preparation and their use as kinase inhibitors” (Nerviano Medical Sciences S.r.l., priority 2011, dated 2015).

Structures can show the parent of a compound that is named as a salt.

In one assay the target is MPS1 (Homo sapiens (Human), UniProt P33981). As to the kind of experiment: Biochemical assay for inhibitors of MPS1 kinase activity (trans-phosphorylation, Dowex). The note with it: 15 microM ATP, 200 microM P38-βtide substrate, 5 nM MPS1. As for the experimental part: Cloning, Expression and Purification of Recombinant MPS1 Full Length Protein.
MPS1, sequence (P33981 2-857): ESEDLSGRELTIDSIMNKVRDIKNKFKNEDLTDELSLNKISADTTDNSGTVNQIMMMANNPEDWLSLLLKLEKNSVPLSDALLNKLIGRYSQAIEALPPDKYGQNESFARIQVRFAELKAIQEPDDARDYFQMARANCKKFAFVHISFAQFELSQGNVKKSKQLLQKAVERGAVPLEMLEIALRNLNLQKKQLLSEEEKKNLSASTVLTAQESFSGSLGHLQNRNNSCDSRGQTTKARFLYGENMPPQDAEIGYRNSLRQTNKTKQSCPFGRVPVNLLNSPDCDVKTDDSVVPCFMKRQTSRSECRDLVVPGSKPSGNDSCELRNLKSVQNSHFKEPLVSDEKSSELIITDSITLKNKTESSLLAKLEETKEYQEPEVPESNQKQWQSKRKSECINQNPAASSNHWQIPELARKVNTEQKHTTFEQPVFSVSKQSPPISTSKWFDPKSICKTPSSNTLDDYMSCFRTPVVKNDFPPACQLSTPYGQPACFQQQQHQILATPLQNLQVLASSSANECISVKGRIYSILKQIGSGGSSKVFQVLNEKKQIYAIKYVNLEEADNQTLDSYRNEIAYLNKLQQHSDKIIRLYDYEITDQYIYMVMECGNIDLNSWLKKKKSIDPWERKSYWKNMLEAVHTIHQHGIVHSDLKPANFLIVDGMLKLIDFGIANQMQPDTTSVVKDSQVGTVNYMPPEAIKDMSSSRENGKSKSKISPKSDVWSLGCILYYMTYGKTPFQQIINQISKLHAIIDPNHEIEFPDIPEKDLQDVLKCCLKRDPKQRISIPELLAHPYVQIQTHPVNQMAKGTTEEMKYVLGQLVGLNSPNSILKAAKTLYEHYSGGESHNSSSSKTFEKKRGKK
MPS1 full length (corresponding to residues 2-857 of the full length sequence, see Swiss-Prot accession number P33981) was PCR amplified from the full-length human MPS1 gene present in house as clone pGEX4t_MPS1.
To get a fully activated enzyme, the protein was then subjected to auto-phosphorylation in presence of ATP 1 mM at 25° C. for 2 hours in kinase buffer (Hepes pH7.5 50 mM, MgCl2 2.5 mM, MnCl2 1 mM, DTT 1 mM, phosphatase inhibitors); ATP was then removed whit a desalting column.
Biochemical Assay for Inhibitors of MPS1 Kinase Activity
(§1) The inhibitory activity of putative kinase inhibitors and the potency of selected compounds were determined using a trans-phosphorylation assay.
(§2) Specific peptide or protein substrates are trans-phosphorylated by their specific ser-thr or tyr kinase in the presence of ATP traced with ^33P-γ-ATP, and in the presence of their own optimal buffer and cofactors.
At the end of the phosphorylation reaction, more than 98% unlabeled ATP and radioactive ATP is captured by an excess of the ion exchange dowex resin; the resin then settles down to the bottom of the reaction plate by gravity. Supernatant is subsequently withdrawn and transferred into a counting plate, then evaluated by β-counting.
The buffer for MPS1 assay was composed of HEPES 50 mM, at pH 7.5, with 2.5 mM MgCl2, 1 mM MnCl2, 1 mM DTT, 3 microM Na3VO4, 2 mM β-glycerophosphate and 0.2 mg/mL BSA.
The assay was run with a final concentration MPS1 of 5 nM, in the presence of 15 microM ATP and 1.5 nM ^33P-γ-ATP; the substrate was P38-βtide, used at 200 microM.
a) for percent inhibition studies (HTS), individual dilution plates at 1 mM are diluted at a 3× concentration (30 microM) in ddH2O (3% DMSO=final concentration) using a Beckman NX automated pipetting platform. The same instrument is used for distributing the diluted mother plates into the test plates. b) for IC50 determination (KSS platform), 100 microL of each compound at 1 mM in 100% DMSO are transferred from the original plate into the first column of another 96 well plate (A1 to G1); well H1 is left empty for the internal standard inhibitor, usually staurosporine.
An automated station for serial dilutions (Biomek FX, Beckman) is used for producing 1:3 dilutions in 100% DMSO, from line A1 to A10, and for all the seven compounds in the column. Moreover, 4-5 copies of daughter plates are prepared by reformatting 5 microL of this first set of 100% DMSO dilution plates into 384 deep well-plates: one copy of the daughter plates with the serial dilutions of test compounds will be thaw the day of the experiments, reconstituted at a 3× concentration with water and used in the IC50 determination assays. In a standard experiment, the highest concentration (3×) of all compounds is 30 microM, while the lowest one is 1.5 nM.
384-well plates, V bottom (test plates) are prepared with 5 microL of the compound dilution (3×) and then placed onto a PlateTrak 12 robotized station (Perkin Elmer; the robot has one 384-tips pipetting head for starting the assay plus one 96-tips head for dispensing the resin) together with one reservoir for the Enzyme mix (3×) and one for the ATP mix (3×).
At the start of the run, the robot aspirates 5 microL of ATP mix, makes an air gap inside the tips (2 microL) and aspirates 5 microL of MPS1 mix. The following dispensation into the plates allows the kinase reaction to start upon 3 cycles of mixing, done by the robot itself.
The robot incubates the plates for 60 minutes at room temperature, and then stops the reaction by pipetting 70 microL of dowex resin suspension into the reaction mix. Three cycles of mixing are done immediately after the addition of the resin.
Another mixing cycle is performed after all the plates are stopped, this time using normal tips: the plates are then allowed to rest for about one hour in order to maximize ATP capture. […]

The next assay concerns the target PIM-1 (Homo sapiens (Human), UniProt P11309). As to the kind of experiment: Biochemical assay for inhibitors of PIM-1 kinase activity (trans-phosphorylation, Dowex). The following applies: 200 microM ATP, 25 microM Aktide, 1 nM enzyme. How it is done: Biochemical Assay for Inhibitors of PIM-1 Kinase Activity
as §1, §2
At the end of the phosphorylation reaction, more than 98% unlabeled ATP and radioactive ATP is captured by an excess of the ion exchange dowex resin; the resin then settles down to the bottom of the reaction plate by gravity.
Supernatant is subsequently withdrawn and transferred into a counting plate, then evaluated by β-counting.
The buffer for PIM-1 assay was composed of HEPES 50 mM, at pH 7.5, with 10 mM MgCl2, 1 mM DTT, 3 microM NaVO3, and 0.2 mg/ml BSA
Full-length human PIM-1 was expressed and purified as described in Bullock A N, et al., J. Biol. Chem. 2005, 280, 41675-82.
ATP concentration: 200 microM
Enzyme concentration: 1 nM
Substrate concentration Aktide (Chemical Abstract Service Registry Number 324029-01-8): 25 microM
For IC50 determination, test compounds are received as a 1 mM solution in 100% DMSO and distributed into 96-well plates: compounds are then plated into the first column of a new 96-well plate (A1 to G1), 100 microL/well.
An automated station (Biomek FX, Beckman) is used for serial dilutions, producing 1:3 dilutions in 100% DMSO, from line A1 to A10, for all the compounds in the column. Moreover, 4-5 copies of daughter plates are prepared by reformatting 5 microL of this first set of 100% DMSO dilution plates into 384-deep well plates: one copy of these serial dilution plates with the test compounds is thawed on the day of study, reconstituted at the working concentration (3-fold the final concentration) with 162 microL/well of water and used for IC50 determination assays. In a standard experiment, the highest concentration (3×) of compounds is typically 30 microM, while the lowest one is typically 1.5 nM.
Each 384-well plate generates at least one curve of the standard inhibitor staurosporine and reference wells (total enzyme activity vs. no enzymatic activity) for evaluation of Z′ and signal to background (S/B) ratio.
384-well plates, V bottom (test plates) are prepared with 5 microL of compound diluted as previously described (3×) and then placed onto a PlateTrak 12 robotized station (Perkin Elmer; the robot has one 384-tip pipetting head for assay start, plus one 96-tip head for dispensing resin) together with one reservoir for Enzyme mix (3×) and one for ATP mix (3×).
Data are analyzed by an internally customized version of the “Assay Explorer” SW package, which provides sigmoidal fitting of the ten-dilution curves for IC50 determination in secondary assay/hit confirmation routines.

In a further assay the target is PIM-2 (Homo sapiens (Human), UniProt Q9P1W9). Put plainly: PIM-2 kinase inhibition assay: Dowex technique. Type of assay: biochemical. The following applies: 4 microM ATP, 5 microM Aktide, 1.5 nM enzyme. As for the experimental part:
Method for PIM-2 Kinase Inhibition Assay: Dowex Technique
The buffer for PIM-2 assay was composed of HEPES 50 mM, at pH 7.5, with 1 mM MgCl2, 1 mM DTT, 3 microM Na3VO4, and 0.2 mg/mL BSA
Full-length human PIM-2 was expressed and purified as described in Fedorov O, et al., PNAS 2007 104, 51, 20523-28.
Enzyme concentration=1.5 nM
Aktide substrate (Chemical Abstract Service Registry Number 324029-01-8)=5 microM
See above: same procedure as described for PIM-1.

PIM-2, sequence (Q9P1W9 whole entry): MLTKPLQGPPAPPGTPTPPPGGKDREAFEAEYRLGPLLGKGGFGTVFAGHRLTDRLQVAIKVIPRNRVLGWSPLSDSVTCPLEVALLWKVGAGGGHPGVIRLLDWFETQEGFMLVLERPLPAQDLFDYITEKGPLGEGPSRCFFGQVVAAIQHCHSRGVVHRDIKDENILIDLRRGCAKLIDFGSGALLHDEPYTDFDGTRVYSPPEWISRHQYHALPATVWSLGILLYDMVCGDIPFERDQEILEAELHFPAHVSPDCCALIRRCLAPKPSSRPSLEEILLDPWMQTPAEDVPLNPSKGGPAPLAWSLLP
PIM-1, sequence (P11309 whole entry): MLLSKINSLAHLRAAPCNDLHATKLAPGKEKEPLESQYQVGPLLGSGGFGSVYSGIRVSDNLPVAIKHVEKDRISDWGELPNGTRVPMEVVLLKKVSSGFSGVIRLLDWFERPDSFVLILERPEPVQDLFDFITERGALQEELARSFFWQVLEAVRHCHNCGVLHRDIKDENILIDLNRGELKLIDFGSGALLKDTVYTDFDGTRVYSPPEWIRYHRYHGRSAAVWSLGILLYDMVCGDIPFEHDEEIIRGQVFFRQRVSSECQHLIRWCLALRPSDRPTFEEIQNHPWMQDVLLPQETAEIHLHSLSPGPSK

Consider `CCc1cccc(CC)c1NC(=O)c1c2c(n(C)c1C)-c1nc(Nc3ccc(N4CCC(N5CCCC5)CC4)cc3OC)ncc1CC2` [Compound 3, N-(2,6-diethylphenyl)-2-({2-methoxy-4-[4-(pyrrolidin-1-yl)piperidin-1-yl]phenyl}amino)-8,9-dimethyl-6,9-dihydro-5H-pyrrolo[3,2-h]quinazoline-7-carboxamide], for which the IC50 against MPS1 was 99 nM; at PIM-1 it was above 10000 nM; against PIM-2, above 10000 nM.

For the compound `COc1cc(N2CCN(C)CC2)ccc1Nc1ncc2c(n1)-c1c(c(C(N)=O)c(C)n1C)CC2` [Compound 7, 2-{[2-methoxy-4-(4-methylpiperazin-1-yl)phenyl]amino}-8,9-dimethyl-6,9-dihydro-5H-pyrrolo[3,2-h]quinazoline-7-carboxamide], the concentration for half-maximal inhibition (IC50) was 23 nM at MPS1, 748 nM on PIM-1 and above 5000 nM on PIM-2.

Turning to `CCc1cccc(CC)c1NC(=O)c1cn(C)c2c1CCCc1cnc(Nc3ccc(N4CCN(C)CC4)cc3OC)nc1-2` [Compound 16, N-(2,6-diethylphenyl)-2-{[2-methoxy-4-(4-methylpiperazin-1-yl)phenyl]amino}-10-methyl-5,6,7,10-tetrahydropyrrolo[3′,2′:6,7]cyclohepta[1,2-d]pyrimidine-8-carboxamide], the results for the IC50 against MPS1, at PIM-1 and on PIM-2 were 132 nM, above 10000 nM and above 10000 nM, respectively.

Consider `CSc1ncc2c(n1)-c1c(c(C(N)=O)cn1C(C)C)CC2` [Compound 22, 2-(methylsulfanyl)-9-(propan-2-yl)-6,9-dihydro-5H-pyrrolo[3,2-h]quinazoline-7-carboxamide], for which the IC50 amounted to 382 nM on MPS1, 16 nM against PIM-1 and 24 nM on PIM-2.

As to `CSc1ncc2c(n1)-c1c(c(C(N)=O)cn1CCO)CC2` [Compound 25, 9-(2-hydroxyethyl)-2-(methylsulfanyl)-6,9-dihydro-5H-pyrrolo[3,2-h]quinazoline-7-carboxamide], the IC50 against MPS1 is 2440 nM; at PIM-1, 133 nM; against PIM-2 it was 540 nM.

As for `CSc1ncc2ccc3c(C(N)=O)c(C)n(CCO)c3c2n1` [Compound 29, 9-(2-hydroxyethyl)-8-methyl-2-(methylsulfanyl)-9H-pyrrolo[3,2-h]quinazoline-7-carboxamide], the values for the IC50 against MPS1, against PIM-1 and at PIM-2 were 2940 nM, 87 nM and 408 nM, respectively.

As to `CSc1ncc2ccc3c(C(N)=O)c(C)n(C(C)C)c3c2n1` [Compound 30, 8-methyl-2-(methylsulfanyl)-9-(propan-2-yl)-9H-pyrrolo[3,2-h]quinazoline-7-carboxamide], the values for the IC50 against MPS1, against PIM-1 and against PIM-2 were 622 nM, 4 nM and 12 nM, respectively.

With `CSc1ncc2c(n1)-c1c(c(C(N)=O)cn1C1CCNCC1)CC2` [Compound 32, 2-(methylsulfanyl)-9-(piperidin-4-yl)-6,9-dihydro-5H-pyrrolo[3,2-h]quinazoline-7-carboxamide hydrochloride], the IC50 on MPS1 is above 10000 nM; at PIM-1 it was 74 nM; on PIM-2, 159 nM.

With `CSc1ncc2c(n1)-c1c(c(C(N)=O)cn1[C@H]1CC[C@@H](N)CC1)CC2` [Compound 33, 9-(cis 4-aminocyclohexyl)-2-(methylsulfanyl)-6,9-dihydro-5H-pyrrolo[3,2-h]quinazoline-7-carboxamide hydrochloride], the half-maximal inhibitory concentration (IC50) at MPS1 amounted to 1550 nM; against PIM-1, 5 nM; on PIM-2 it was 7 nM.

As for `CSc1ncc2ccc3c(C(N)=O)cn([C@H]4CC[C@@H](N)CC4)c3c2n1` [Compound 34, 9-(cis-4-aminocyclohexyl)-2-(methylsulfanyl)-9H-pyrrolo[3,2-h]quinazoline-7-carboxamide], the results for the IC50 against MPS1, against PIM-1 and on PIM-2 were 855 nM, 0.8 nM and 1 nM, respectively.

As to `CSc1ncc2ccc3c(C(N)=O)cn(C4CCNCC4)c3c2n1` [Compound 35, 2-(methylsulfanyl)-9-(piperidin-4-yl)-9H-pyrrolo[3,2-h]quinazoline-7-carboxamide], the values for the half-maximal inhibitory concentration (IC50) against MPS1, on PIM-1 and against PIM-2 were 4550 nM, 7 nM and 23 nM, respectively.

Turning to `CSc1ncc2ccc3c(C(N)=O)c[nH]c3c2n1` [Compound 36, 2-(methylsulfanyl)-9H-pyrrolo[3,2-h]quinazoline-7-carboxamide], the IC50 on MPS1 was 814 nM; on PIM-1 it was 13 nM; on PIM-2 it was 46 nM.

Turning to `CSc1ncc2ccc3c(C(N)=O)cn(CC(C)(C)CN)c3c2n1` [Compound 38, 9-(3-amino-2,2-dimethylpropyl)-2-(methylsulfanyl)-9H-pyrrolo[3,2-h]quinazoline-7-carboxamide hydrochloride], the IC50 against MPS1 came to 2940 nM; against PIM-1 it was 24 nM; at PIM-2, 34 nM.

`Cn1cc(C(N)=O)c2c1-c1nc(N)ncc1CC2` [Ref. cmpound 1, 2-amino-9-methyl-6,9-dihydro-5H-pyrrolo[3,2-h]quinazoline-7-carboxamide, reference compound]: the IC50 on MPS1, at PIM-1 and against PIM-2 was above 10000 nM in each case.

`NC(=O)c1c(-c2ccccc2)[nH]c2c1ccc1cnc(N)nc12` [compound 2, 2-amino-8-phenyl-9H-pyrrolo[3,2-h]quinazoline-7-carboxamide, reference compound]: the IC50 at MPS1 was above 5000 nM; against PIM-1, above 5000 nM; at PIM-2, above 10000 nM.

A word on the IC50: it is the concentration needed to halve the response being measured. The low end stands for greater potency in that assay, the high end for weaker potency in that assay.
